Data from PMC10341549, “Inhibitory Investigations of Acyl-CoA Derivatives against Human Lipoxygenase Isozymes” (International Journal of Molecular Sciences, 2023).
Like-named read-outs stand apart in the source and are kept apart here.

Tests used:
h5-LOX = molecular target: T1, h5-LOX (Homo sapiens, UniProt P09917, C241A/C562A/D45S/DEL41-43/F15H/K654E/K655N/K656L/L77S/N44G/W14E/W76G); assay: IC50 determination against h5-LOX; format: biochemical; conditions: 10 μM AA, 50 mM HEPES pH 7.5, 200 µM ATP, ammonium-sulfate precipitate enzyme, 22 °C
T1 sequence (P09917 with tags, fused parts or gaps W14E/F15H/DEL41-43/N44G/D45S/W76G/L77S/C241A/C562A/K654E/K655N/K656L): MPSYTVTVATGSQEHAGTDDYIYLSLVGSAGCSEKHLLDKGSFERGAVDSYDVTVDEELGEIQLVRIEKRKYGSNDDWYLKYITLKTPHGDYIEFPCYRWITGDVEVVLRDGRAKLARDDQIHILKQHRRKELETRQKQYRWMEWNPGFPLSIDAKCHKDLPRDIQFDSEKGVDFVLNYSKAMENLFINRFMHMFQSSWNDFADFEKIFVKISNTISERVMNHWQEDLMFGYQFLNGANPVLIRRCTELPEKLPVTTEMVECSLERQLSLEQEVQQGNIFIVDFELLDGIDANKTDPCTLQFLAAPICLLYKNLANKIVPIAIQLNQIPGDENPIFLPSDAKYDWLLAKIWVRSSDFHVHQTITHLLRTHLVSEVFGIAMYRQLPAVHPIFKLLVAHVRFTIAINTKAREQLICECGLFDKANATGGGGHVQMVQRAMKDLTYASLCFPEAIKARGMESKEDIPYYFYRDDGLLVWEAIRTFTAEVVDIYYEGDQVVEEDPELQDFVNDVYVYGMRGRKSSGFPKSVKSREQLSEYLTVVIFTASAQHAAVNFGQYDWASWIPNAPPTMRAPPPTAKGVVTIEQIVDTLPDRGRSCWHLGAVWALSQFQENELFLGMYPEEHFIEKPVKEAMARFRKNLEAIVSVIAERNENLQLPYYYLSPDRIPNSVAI

h12-LOX = molecular target: T2, h12-LOX (Homo sapiens, UniProt P18054); design: method as in PMID 37506345; conditions: 10 μM AA, 25 mM HEPES pH 8.00, 0.01% Triton X-100, 22 °C, published previously, ref [30], cited from earlier work
T2 construct: His tag; made in house
T2 sequence (P18054 1-663): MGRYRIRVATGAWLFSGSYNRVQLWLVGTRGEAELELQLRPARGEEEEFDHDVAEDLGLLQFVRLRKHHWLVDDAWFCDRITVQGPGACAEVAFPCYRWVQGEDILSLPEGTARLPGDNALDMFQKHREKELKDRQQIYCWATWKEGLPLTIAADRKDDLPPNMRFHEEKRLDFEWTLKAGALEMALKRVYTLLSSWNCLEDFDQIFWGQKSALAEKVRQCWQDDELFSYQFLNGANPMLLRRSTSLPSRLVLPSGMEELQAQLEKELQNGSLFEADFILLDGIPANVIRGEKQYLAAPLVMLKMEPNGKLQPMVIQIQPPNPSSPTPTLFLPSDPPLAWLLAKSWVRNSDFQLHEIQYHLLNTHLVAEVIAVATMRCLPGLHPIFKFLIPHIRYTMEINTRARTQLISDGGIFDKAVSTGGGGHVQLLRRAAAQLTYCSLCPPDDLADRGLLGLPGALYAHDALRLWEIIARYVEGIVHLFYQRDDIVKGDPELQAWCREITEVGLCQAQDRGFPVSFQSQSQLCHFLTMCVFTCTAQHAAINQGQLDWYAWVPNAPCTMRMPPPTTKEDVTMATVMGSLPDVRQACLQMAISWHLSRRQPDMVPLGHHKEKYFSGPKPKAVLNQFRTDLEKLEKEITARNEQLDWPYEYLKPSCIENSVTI

| Structure (SMILES) | IC50 (h5-LOX) | IC50 (h12-LOX) | IC50 (h12-LOX; listed as docosahexaenoyl-CoA (22:6)) | IC50 (h12-LOX; listed as palmitoleoyl-CoA (16:1)) |
| --- | --- | --- | --- | --- |
| CC/C=C\C/C=C\C/C=C\C/C=C\C/C=C\C/C=C\CCC(=O)SCCNC(=O)CCNC(=O)C(O)C(C)(C)COP(=O)(O)OP(=O)(O)OC[C@H]1O[C@@H](n2cnc3c(N)ncnc32)[C@H](O)[C@@H]1OP(=O)(O)O (some centres unmarked) [Docosahexaenoyl CoA (22:6), docosahexaenoyl-coenzyme A (22:6)] |  | > 500 µM | > 200 µM |  |
| CCCCCCCC/C=C\CCCCCCCC(=O)SCCNC(=O)CCNC(=O)[C@H](O)C(C)(C)COP(=O)(O)OP(=O)(O)OC[C@H]1O[C@@H](n2cnc3c(N)ncnc32)[C@H](O)[C@@H]1OP(=O)(O)O [Oleoyl-CoA (18:1), oleoyl-coenzyme A (18:1)] | > 50 µM | 32 ± 4 µM |  |  |
| CCCCCC/C=C\CCCCCCCC(=O)SCCNC(=O)CCNC(=O)[C@H](O)C(C)(C)COP(=O)(O)OP(=O)(O)OC[C@H]1O[C@@H](n2cnc3c(N)ncnc32)[C@H](O)[C@@H]1OP(=O)(O)O [Palmitoleoyl-CoA (16:1), palmitoleoyl-coenzyme A (16:1)] | 2 ± 0.4 µM | > 500 µM |  | > 200 µM |
| CCCCCCCCCCCCCCCC(=O)SCCNC(=O)CCNC(=O)[C@H](O)C(C)(C)COP(=O)(O)OP(=O)(O)OC[C@H]1O[C@@H](n2cnc3c(N)ncnc32)[C@H](O)[C@@H]1OP(=O)(O)O [Palmitoyl-CoA (16:0), palmitoyl-coenzyme A (16:0)] | 3.3 ± 0.3 µM | > 200 µM |  |  |
| CCCCC/C=C\C/C=C\C/C=C\CCCCC(=O)SCCNC(=O)CCNC(=O)[C@H](O)C(C)(C)COP(=O)(O)OP(=O)(O)OC[C@H]1O[C@@H](n2cnc3c(N)ncnc32)[C@H](O)[C@@H]1OP(=O)(O)O [ɣ-Linolenoyl-CoA (18:3), ɣ-linolenoyl-coenzyme A (18:3)] | > 500 µM | > 200 µM |  |  |

Further lines, with some results ahead:

| IC50 (h5-LOX) | Structure (SMILES) | IC50 (h12-LOX) | IC50 (h12-LOX; listed as docosahexaenoyl-CoA (22:6)) | IC50 (h12-LOX; listed as palmitoleoyl-CoA (16:1)) |
| --- | --- | --- | --- | --- |
| > 200 µM | CCCCC/C=C\C/C=C\C/C=C\C/C=C\CCCC(=O)SCCNC(=O)CCNC(=O)[C@H](O)C(C)(C)COP(=O)(O)OP(=O)(O)OC[C@H]1O[C@@H](n2cnc3c(N)ncnc32)[C@H](O)[C@@H]1OP(=O)(O)O [Arachidonoyl-CoA (20:4), arachidonoyl-coenzyme A (20:4)] | 110 ± 20 µM |  |  |
| > 100 µM | CCCCC/C=C\C/C=C\CCCCCCCC(=O)SCCNC(=O)CCNC(=O)[C@H](O)C(C)(C)COP(=O)(O)OP(=O)(O)OC[C@H]1O[C@@H](n2cnc3c(N)ncnc32)[C@H](O)[C@@H]1OP(=O)(O)O [Linoleoyl-CoA (18:2), linoleoyl-CoA] | > 200 µM |  |  |
| > 50 µM | CCCCCCCCCCCCCCCCCC(=O)SCCNC(=O)CCNC(=O)[C@H](O)C(C)(C)COP(=O)(O)OP(=O)(O)OC[C@H]1O[C@@H](n2cnc3c(N)ncnc32)[C@H](O)[C@@H]1OP(=O)(O)O [Stearoyl-CoA (18:0), stearoyl-coenzyme A (18:0)] | > 200 µM |  |  |
